Data on 23 compounds can be found in US5580552A, “7-glycosyloxybenzopyran derivative and antiallergic agent containing the derivative as active ingredient” (priority 1994, dated 1996).

Test [1] deals with homologous passive cutaneous anaphylaxis (PCA) reaction. Put plainly: Effect on homologous passive cutaneous anaphylaxis (PCA) reaction in rats. It counts as in vivo, rats (male wistar). The settings on record: 50 mg/kg oral, 1 hour before challenge (TABLE 2); for inhibition in vivo at 50 mg/kg: Rattus norvegicus, po, 0.5 h. On the procedure: Effect on homologous passive cutaneous anaphylaxis (PCA) reaction in rats.
This experimental animal model is caused by immediate type allergic reaction namely, antigen-antibody reaction. In the following, the method of this pharmacological test will be explained.
Method: Male wistar rats (9 weeks old) were intradermally administered 0.05 ml of anti-serum against dinitrophenylated ascaris (DNP-As) into two sites on the shaved dorsal skin. 48 hours later, 7-glycosyloxybenzopyran derivatives (test compounds) suspended in 0.5% sodium carboxymethylcellulose (CMCNa) were given orally at a dose of 50 mg/kg to the animals. One hour after administration of Test compounds, the animals were induced anaphylaxis by injection of saline (1 ml) dissolving 5 mg of Evans Blue and 1 mg of Trinitrophenylated ascaris (TNP-As) into the tail vein of the animals. 30 minutes after induction of anaphylaxis, animals were anesthetized by ether and killed by bleeding, and were flayed dorsal skin. The determination of extravasated dye was performed according to the method of Katayama et al. (Microbiol. Immunol., Vol.22, P 89-101, 1978). As vehicle control group, only 0.5% CMCNa solution was administered orally, and as positive control group, Tranilast suspended in 0.5% CMCNa was administered orally at a dose of 100 mg/kg to the animals with the same method as the test compounds groups. Each experimental group consisted of 5 rats. [formula]

For test [2], the system named is contact dermatitis induced by picryl chloride. Briefly: Effect on contact dermatitis induced by picryl chloride in mice. The format is in vivo. The settings on record: 50 mg/kg oral, 1 hour before and 16 hours after challenge, 24 hours after challenge; for inhibition in vivo at 50 mg/kg: Mus musculus, po, 24 h, read-out: Inhibition (%) against the increase of ear thickness. On the procedure: Effect on contact dermatitis induced by picryl chloride in mice
The delayed type hypersensitization is inhibited by steroid drugs,but can not be effected by known anti-allergic agents. In the following, the method of the pharmacological test will be explained.
Method: Mice, shaved their abdominal skin on previous day, were immunized by applying 0.1 ml of acetone containing 7 mg of picryl chloride to the skin of the abdomen. 7 days after immunization, the thickness of the ear was measured with a dial thickness gauge, then mice were challenged by painting 5 μl of 1% picryl chloride olive oil solution to each side skin of left ear. 24 hours after challenge, the thickness of the left ear was measured again and the increase (%) of thickness was calculated according to equation 2. The compounds of the present invention (test compounds) suspended in 0.5% CMCNa were forcibly administered orally at a dose of 50 mg/kg at 1 hour before and 16 hours after challenge. As vehicle control group, only 0.5% CMCNa solution were administered orally, and as positive control group, Prednisolone, steroid hormone, and Tranilast were administered orally at the doses of 10 mg/kg and 100 mg/kg, respectively.
Increase (%)=(A-B)/B×100 (Equation 2)
A: thickness of the ear at 24 hours after challenge
B: thickness of the ear before challenge
Inhibition (%)=(C-D)/C×100 (equation 3)
C: The increase (%) in vehicle control group
D: The increase (%) in test compounds group or positive control group

Test [3] concerns experimental asthma model (airway resistance). Put plainly: Effect on experimental asthma model in guinea pigs (airway resistance). The format is in vivo, guinea pigs (male hartley). Particulars: 50 mg/kg oral (TABLE 6); for inhibition in vivo at 50 mg/kg: Cavia porcellus, po, 0.5 h. On the procedure:
Effect on experimental asthma model in guinea pigs
The asthma is typical allergic disease and we carried out this pharmacological test by well known experimental asthma model in guinea pigs in order to comfirm that the compounds of the present invention suppress the asthma. In the following, the method of the pharmacological test will be explained.
Method: Male hartley guinea pigs were immunized by intraperitoneal injection of saline (1ml) containing 5 mg of ovalbumine (OVA) three times at interval of one week. 2 weeks after final immunization, the animals were challenged by inhalation of 1% OVA-saline solution for 1 minute and then the airway resistance of the animals were measured for 30 minutes with PULMOS-1 (Medical Interface Project Station Inc.) after the inhalation. The compounds of the present invention (test compounds) suspended in 0.5% CMCNa were given orally at a dose of 50 mg/kg. As positive control group, Disodium Cromoglicate (DSCG), well known anti-allergic agent, in saline were injected at a dose of 20 mg/kg into the vein of the animals. As vehicle control group, only 0.5% CMCNa solution were given orally. The inhibition (%) of the airway resistance in vehicle control group was calculated according to equation 5 and the result was shown in TABLE 6. Each experimental group consisted of 5 guinea pigs. [formula]
A: Maximum airway resistance in vehicle control group
B: Maximum airway resistance in test compounds group or positive control group

The structures appear in SMILES notation.

In the case of `CCCCOc1c(O)c(=O)oc2cc(O[C@@H]3O[C@H](CO)[C@H](O)[C@H](O)[C@H]3O)ccc12` [compound 18, 3-hydroxy-4-butoxy-7-(β-D-galactopyranosyloxy)-2H-1-benzopyran-2-one], the inhibition in vivo at 50 mg/kg was 42.5% in test [1], 40.2% in test [2] and 52.3% in test [3].

Turning to `CCCCCCOc1c(OCc2ccccc2)c2ccc(O[C@@H]3O[C@H](COC(C)=O)[C@H](OC(C)=O)[C@H](OC(C)=O)[C@H]3OC(C)=O)cc2oc1=O` [compound 75], the inhibition in vivo at 50 mg/kg was determined as 45.5% in test [1], 40.3% in test [2] and 43.5% in test [3].

Take `C=COc1c(O)c(=O)oc2cc(O[C@H]3O[C@H](CO)[C@@H](O)[C@H](O)[C@@H]3O)ccc12` [compound 137]: the inhibition in vivo at 50 mg/kg in test [1] is 41.7%; in test [2], 43.5%; in test [3], 45.4%.

With `CCCCCCOc1c(O)c(=O)oc2cc(O[C@H]3O[C@H](CO)[C@@H](O)[C@H](O)[C@@H]3O)ccc12` [compound 20, 3-hydroxy-4-hexyloxy-7-(α-D-mannopyranosyloxy)-2H-1-benzopyran-2-one], the inhibition in vivo at 50 mg/kg in test [1] stood at 42.3%; in test [2], 45.2%; in test [3] it was 55.4%.

For `CCCCCCCCOc1c(O)c2ccc(O[C@@H]3O[C@H](CO)[C@@H](O)[C@H](O)[C@H]3O)cc2oc1=O` [compound 39], the results for the inhibition in vivo at 50 mg/kg in test [1], in test [2] and in test [3] were 62.2%, 65.1% and 77.8%, respectively.

Take `CCCCCCCCOc1c(O)c2ccc(O[C@@H]3O[C@H](CO)[C@H](O)[C@H](O)[C@H]3O)cc2oc1=O` [compound 88]: the inhibition in vivo at 50 mg/kg in test [1] is 61.5%; in test [2], 66.8%; in test [3] it was 80.2%.

For `CCCCCCCCCCCCOc1c(O)c2ccc(O[C@@H]3O[C@H](CO)[C@H](O)[C@H](O)[C@H]3O)cc2oc1=O` [compound 90], the inhibition in vivo at 50 mg/kg in test [1] was 54.3%; in test [2], 60.1%; in test [3], 72.1%.

`O=c1oc2cc(O[C@@H]3O[C@H](CO)[C@@H](O)[C@H](O)[C@H]3O)ccc2c(OCc2ccccc2)c1O` [compound 118]: the “Inhibition (%) of PCA reaction” value in test [1] was determined as 41.2%. Besides, the “Inhibition (%) against the increase of ear thickness” value (“Inhibition (%) against the increase” for short) in test [2] worked out at 43.5%. Besides, the “Inhibition (%) of the airway resistance” value in test [3] was 45.3%.

Turning to `CCCCOc1c(OC(=O)CC)c(=O)oc2cc(O[C@@H]3O[C@H](COC(C)=O)[C@@H](OC(C)=O)[C@H](OC(C)=O)[C@H]3OC(C)=O)ccc12` [compound 99], the inhibition in vivo at 50 mg/kg in test [1] was 40.2%; in test [2] it was 40.3%; in test [3] it was 39.2%.

In the case of `CCCCCCCCOc1c(OCc2ccccc2)c2ccc(O[C@@H]3O[C@H](COCc4ccccc4)[C@@H](OCc4ccccc4)[C@H](OCc4ccccc4)[C@H]3OCc3ccccc3)cc2oc1=O` [compound 35], the inhibition in vivo at 50 mg/kg in test [1] is 42.2%; in test [2] it was 40.5%; in test [3] it was 38.2%.

Take `CC(C)=CCC/C(C)=C/COc1c(O)c(=O)oc2cc(O[C@@H]3O[C@H](CO)[C@@H](O)[C@H](O)[C@H]3O)ccc12` [compound 117]: the inhibition in vivo at 50 mg/kg in test [1] turned out to be 40.3%; in test [2], 42.3%; in test [3], 49.4%.

Take `CC(=O)Oc1c(OC(C)C)c2ccc(O[C@@H]3O[C@H](COCc4ccccc4)[C@@H](OCc4ccccc4)[C@H](OCc4ccccc4)[C@H]3OCc3ccccc3)cc2oc1=O` [compound 145]: the inhibition in vivo at 50 mg/kg was 40.2% in test [1], 42.1% in test [2] and 41.9% in test [3].

Turning to `CCCCCCCCCCCCOc1c(O)c(=O)oc2cc(O[C@@H]3O[C@H](CO)[C@@H](O)[C@H](O)[C@H]3O)ccc12` [compound 155], in test [1], the “Inhibition (%) of PCA reaction” value was 42.9%. For the same compound, the “Inhibition (%) against the increase” value in test [2] is 40.9%. The “Inhibition (%) of the airway resistance” value in test [3] is 57.6%.

With `CCC=CCCOc1c(O)c(=O)oc2cc(O[C@H]3O[C@H](CO)[C@@H](O)[C@H](O)[C@@H]3O)ccc12` [compound 138], the inhibition in vivo at 50 mg/kg in test [1] worked out at 42.5%; in test [2] it was 44.7%; in test [3] it was 50.8%.

On to `O=c1oc2cc(O[C@H]3O[C@H](CO)[C@@H](O)[C@H](O)[C@@H]3O)ccc2c(O)c1O` [compound 130], for which the “Inhibition (%) of PCA reaction” value in test [1] was 40.1%. In addition, in test [2], the “Inhibition (%) against the increase” value was found to be 41.2%. For the same compound, in test [3], the “Inhibition (%) of the airway resistance” value turned out to be 40.2%.

Take `CCC=CCCOc1c(O)c2ccc(O[C@H]3O[C@H](CO)[C@@H](O)[C@H](O)[C@@H]3O)cc2oc1=O` [compound 70]: the inhibition in vivo at 50 mg/kg is 51.3% in test [1], 52.1% in test [2] and 65.6% in test [3].

With `O=c1oc2cc(O[C@H]3O[C@H](CO)[C@@H](O)[C@H](O)[C@@H]3O)ccc2c(O)c1O` [compound 61], the figures for the inhibition in vivo at 50 mg/kg in test [1], in test [2] and in test [3] were 40.2%, 43.1% and 45.2%, respectively.

As to `CCCCCCCCCCCCOc1c(O)c(=O)oc2cc(O[C@@H]3O[C@H](CO)[C@@H](O)[C@H](O)[C@H]3O)ccc12` [compound 112], the inhibition in vivo at 50 mg/kg in test [1] is 44.5%; in test [2], 43.3%; in test [3] it was 57.2%.

For `C=COc1c(O)c(=O)oc2cc(O[C@@H]3O[C@H](CO)[C@@H](O)[C@H](O)[C@H]3O)ccc12` [compound 158], the “Inhibition (%) of PCA reaction” value in test [1] worked out at 44.3%. In addition, the “Inhibition (%) against the increase” value in test [2] is given as 48.2%. In test [3], the “Inhibition (%) of the airway resistance” value was determined as 42.3%.

Regarding `COc1c(O)c2ccc(O[C@@H]3O[C@H](CO)[C@@H](O)[C@H](O)[C@H]3O)cc2oc1=O` [compound 3, 3-methoxy-4-hydroxy-7-(β-D-glucopyranosyloxy)-2H-1-benzopyran-2-one], the inhibition in vivo at 50 mg/kg was determined as 53.1% in test [1], 51.3% in test [2] and 63.1% in test [3].

For the compound `CCCCCCCCOc1c(O)c(=O)oc2cc(O[C@@H]3O[C@H](CO)[C@@H](O)[C@H](O)[C@H]3O)ccc12` [compound 22, 3-hydroxy-4-octyloxy-7-(β-D-glucopyranosyloxy)-2H-1-benzopyran-2-one], the inhibition in vivo at 50 mg/kg in test [1] was found to be 43.6%; in test [2], 47.3%; in test [3], 60.6%.

For `CCCCCCOc1c(O)c2ccc(O[C@@H]3O[C@H](CO)[C@@H](O)[C@H](O)[C@H]3O)cc2oc1=O` [compound 38], the values for the inhibition in vivo at 50 mg/kg in test [1], in test [2] and in test [3] were 59.3%, 63.7% and 75.5%, respectively.

Consider `CCCCCCCCCCOc1c(O)c(=O)oc2cc(O[C@@H]3O[C@H](CO)[C@@H](O)[C@H](O)[C@H]3O)ccc12` [compound 154], for which the “Inhibition (%) of PCA reaction” value in test [1] turned out to be 43.2%. For the same compound, in test [2], the “Inhibition (%) against the increase” value came to 41.6%. Moreover, in test [3], the “Inhibition (%) of the airway resistance” value is 59.2%.
